Results on six compounds are retold here after PubChem BioAssay (NCI).

Common to all, as to assay: growth of human tumour cells (NCI), 48 h
In experiment [1] the test system is A498 renal.
Experiment [2] has as its system DU-145 prostate.
For experiment [3], the system named is IGROV1 ovarian.
Experiment [4] deals with LOX IMVI melanoma.
For experiment [5], the system named is MALME-3M melanoma.
In experiment [6] the test system is MDA-MB-435.
In experiment [7] the test system is NCI-H226 lung.
In experiment [8] the test system is NCI-H522 lung.
The test system of experiment [9] is RPMI-8226 leukemia.
Experiment [10] deals with SNB-75 CNS.

Where “and” joins values, the source holds several entries; their conditions need not be identical. Equal entries are not always repeated.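 Grown in 96-well plates, cells were treated for 48 hours with each compound at five concentrations. Insufficient inhibition: endpoint recorded as highest concentration tested. Here, GI50 denotes the concentration required for 50% inhibition of growth. TGI: concentration producing complete growth inhibition.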

As for `CN(Cc1cccc(F)c1)c1ccc(CO)c(Cl)c1`, the GI50 in [1] was 57 nM; in [2], 29700 nM; in [3] it was 361 nM; in experiment [4] it was 23500 nM; in experiment [5], 27500 nM; in experiment [6], 15700 nM. In addition, the GI50 is 123 nM in [7], 24100 nM in experiment [8], 13300 nM in [9] and 14400 nM in experiment [10]. The TGI in experiment [1] was 189 nM; in [2], over 100000 nM; in experiment [3], 3050 nM; in experiment [4], 75900 nM; in experiment [5], over 88900 nM; in experiment [6], 57600 nM. Moreover, the TGI is 275 nM in [7], 75500 nM in experiment [8], over 68300 nM in experiment [9] and 51600 nM in [10].
For the compound `CC1=C(/C=C/C(C)=C/C=C/C(C)=C/C=N/NC(=S)NC(=S)N/N=C/C=C(C)/C=C/C=C(C)/C=C/C2=C(C)CCCC2(C)C)C(C)(C)CCC1`, the GI50 in experiment [1] is 6570 nM and 1360 nM; in [2], 5790 nM and 2550 nM; in [3], 1330 nM and 943 nM; in [4], 1800 nM and 1110 nM; in experiment [5], 1190 nM and 882 nM; in experiment [6] it was 1170 nM and 840 nM. The GI50 was 1060 nM and 1050 nM in experiment [7]; 286 nM and 181 nM in experiment [8]; 3310 nM and 1290 nM in [9]; 2060 nM and 1160 nM in [10]. Moreover, the TGI is 13000 nM and 5830 nM in [1]; 12500 nM and 8770 nM in experiment [2]; 6150 nM and 2870 nM in experiment [3]; 6530 nM and 3020 nM in experiment [4]; 5910 nM and 2630 nM in experiment [5]; 4490 nM and 2140 nM in [6]. For the same compound, the TGI is 2680 nM and 2470 nM in experiment [7]; 1070 nM and 795 nM in experiment [8]; 23100 nM and 4550 nM in [9]; 6750 nM and 3280 nM in experiment [10].
On to `COC1=C(C)C(=O)c2c(c(CCCl)c3n2CCC3O)C1=O` (stereo not given), for which the GI50 was 145 nM in [1]; 39 nM in experiment [2]; 2590 nM in [3]; 592 nM in experiment [4]; 230 nM in [5]; 1240 nM in [6]. Besides, the GI50 in experiment [7] was 764 nM; in experiment [8], 224 nM; in [9], 3080 nM; in [10] it was 191 nM. For the same compound, the TGI in experiment [1] amounted to 313 nM; in experiment [2], 1900 nM; in [3] it was 12400 nM; in experiment [4], 5230 nM; in experiment [5], 584 nM; in [6], 2790 nM. Also, the TGI in experiment [7] is 5500 nM; in experiment [8] it was 1170 nM; in experiment [9], 21800 nM; in experiment [10], 628 nM.
Take `CCN(Cc1ccc(F)cc1)c1ccc(CO)c(C)c1`: the GI50 was 216 nM in [1]; 21100 nM in experiment [2]; 1250 nM in experiment [3]; 14900 nM in [4]; 5580 nM in [5]; 18000 nM in experiment [6]. Moreover, the GI50 in experiment [7] was 291 nM; in [8], 8520 nM; in experiment [9], 6690 nM; in [10], 4100 nM. Further, the TGI in experiment [1] is 1140 nM; in experiment [2], 59200 nM; in experiment [3], 6160 nM; in [4], 29000 nM; in experiment [5], 17300 nM; in experiment [6], 45500 nM. Further, the TGI worked out at 1120 nM in experiment [7], 22000 nM in [8], 37100 nM in experiment [9] and 20200 nM in [10].
As to `O=C(O)c1cn(C2CC2)c2cc(N3CCN(C(=O)Nc4nc(-c5ccccc5)cs4)CC3)c(F)cc2c1=O`, the GI50 in experiment [1] is 1060 nM; in [2], 1050 nM; in experiment [3] it was 1200 nM; in [4], 281 nM; in experiment [5] it was 1530 nM; in experiment [6], 1160 nM. In addition, the GI50 in experiment [7] is 2960 nM; in experiment [8], 1390 nM; in experiment [9], 826 nM; in experiment [10], 1220 nM. The TGI was 7080 nM in experiment [1]; 15800 nM in experiment [2]; over 100000 nM in [3]; 1030 nM in experiment [4]; 6520 nM in experiment [5]; over 100000 nM in experiment [6]. In addition, the TGI in experiment [7] was found to be 57500 nM; in [8] it was 6260 nM; in experiment [9], 7410 nM; in experiment [10] it was 19400 nM.
For the compound `CC(C)N1CCN(Cc2ccc3c(NNC(=O)c4ccccc4)nc4cc(F)ccc4n23)CC1`, the GI50 in [1] was 564 nM; in experiment [2], 629 nM; in experiment [3], 406 nM; in experiment [4], 198 nM; in experiment [5], 575 nM; in [6], 655 nM. Besides, the GI50 was 534 nM in experiment [7], 532 nM in experiment [8], 476 nM in experiment [9] and 451 nM in experiment [10]. For the same compound, the TGI amounted to 4120 nM in experiment [1]; 13300 nM in experiment [2]; 14100 nM in experiment [3]; 1540 nM in experiment [4]; 2400 nM in experiment [5]; 15100 nM in experiment [6]. In addition, the TGI was 8180 nM in [7], 5050 nM in experiment [8], 3180 nM in [9] and 7240 nM in experiment [10].
